Assay results: ChEMBL document CHEMBL4038286, “Synthesis of camphecene derivatives using click chemistry methodology and study of their antiviral activity” (Bioorg Med Chem Lett, 2017)
pEC50: −log10 of the molar value.

Tested on: Influenza A virus
Assay: Antiviral activity against rimantadine-resistant Influenza A virus (A/Puerto Rico/8/34(H1N1)) infected in MDCK cells
Type: functional, A/Puerto Rico/8/1934(H1N1)
Conditions: read-out: ED50 (the source's name)

Compound	pEC50
CCOP(=O)(OCC)C(Cc1cn(CC/N=C2\C[C@H]3CC[C@]2(C)C3(C)C)nn1)P(=O)(OCC)OCC	< 4.23
CC(N)[C@@H]1C[C@H]2CC[C@]1(C)C2 (stereo not given in full)	3.74
CC1(C)[C@@H]2CC[C@@]1(C)/C(=N\CCOCc1cn(CC/N=C3\C[C@H]4CC[C@]3(C)C4(C)C)nn1)C2	4.01
CC1(C)[C@@H]2CC[C@@]1(C)/C(=N/CCN=[N+]=[N-])C2	3.34
CC1(C)[C@@H]2CC[C@@]1(C)/C(=N/CCn1cc(CO)nn1)C2	3.21
CCOC(=O)C(C)(Cc1cn(CC/N=C2\C[C@H]3CC[C@]2(C)C3(C)C)nn1)P(=O)(OCC)OCC (stereo not given in full)	3.50
CC(C)(C)OC(=O)Cn1cc(COCC/N=C2\C[C@H]3CC[C@]2(C)C3(C)C)nn1	4.62
CCOP(=O)(CCCCn1cc(COCC/N=C2\C[C@H]3CC[C@]2(C)C3(C)C)nn1)OCC	3.52
C#CCOCC/N=C1\C[C@H]2CC[C@]1(C)C2(C)C	< 3.37
NC12CC3CC(CC(C3)C1)C2 [AMANTADINE]	4.22
CC1(C)[C@@H]2CC[C@@]1(C)/C(=N/CCOCc1cn(-c3ccccc3)nn1)C2	4.20
CC1(C)[C@@H]2CC[C@@]1(C)/C(=N/CCn1cc(CCO)nn1)C2	4.26
CCCCc1cn(CC/N=C2\C[C@H]3CC[C@]2(C)C3(C)C)nn1	4.25
CC1(C)[C@@H]2CC[C@@]1(C)/C(=N/CCOCc1cn(CCO)nn1)C2	4.30
CC1(C)[C@@H]2CC[C@@]1(C)/C(=N/CCn1cc([Si](C)(C)C)nn1)C2	< 4.51
CNCc1cn(CC/N=C2\C[C@H]3CC[C@]2(C)C3(C)C)nn1	< 4.00
CC(C)(O)Cc1cn(CC/N=C2\C[C@H]3CC[C@]2(C)C3(C)C)nn1	4.49
CC1(C)[C@@H]2CC[C@@]1(C)/C(=N/CCn1cc(CCN3CCOCC3)nn1)C2	4.35
COCCNCCc1cn(CC/N=C2\C[C@H]3CC[C@]2(C)C3(C)C)nn1	4.60
CC(N)C12CC3CC(CC(C3)C1)C2 (stereo not given) [RIMANTADINE]	4.14
